The values that follow come from patent publication US5849587A, “Method of inhibiting viral replication in eukaryotic cells and of inducing apoptosis of virally-infected cells” (Cornell Research Foundation, Inc., priority 1995, dated 1998).

“Also recorded” adds a separate entry of the source.

For test [1], the system named is deoxyhypusyl hydroxylase (DOHH). The settings on record: previously established, Hanauske-Abel et al.; cited from earlier work.
The subject of test [2] is cellular deoxyhypusyl hydroxylase. Conditions: Hanauske-Abel et al. 1994; cited from earlier work.
Test [3] relates to viral Gag mRNA (Rev-dependent transcripts). Nature of the test: Polysomal localization of viral Gag mRNA in PMA-induced ACH-2 cells. Conditions: 200 μM. It counts as cell-based, HIV-1. Here is the method:
(§1) 142, 431-438 (1989), which is hereby incorporated by reference]. However, vigorous HIV-1 production by ACH-2 cells is induced by addition of the phorbol ester PMA [Pomerantz et al., Cell 61, 1271-1276 (1990) and Michael et al., J. Virol 65, 1291-1303 (1991), which are hereby incorporated by reference]. This system was selected for these experiments. Logarithmically growing ACH-2 cells, suspended at a concentration of 3×10^5 /ml, were incubated with the hypusine inhibitors mimosine and HK-1 at a final concentration of 200 μM. After 8 hours, viral replication was activated by addition of PMA to these cells and to untreated controls (100 ng/ml final PMA concentration). […] An aliquot of each fraction was analyzed by slot blotting, using the pXC-1 genomic ribosomal DNA probe from rat containing the 18S rRNA coding sequence [Rimarachin, Szabo et al., In Vitro 28A, 705-707 (1992), which is hereby incorporated by reference], to determine the location within the gradient of 18S rRNA, i.e., the distribution of polysomes vs. monosomes. […] Following electrophoresis, the radio-labeled PCR products were visualized by autoradiography according to routine techniques, and the band intensities quantified by densitometric analysis and expressed relative to total product per gradient.

Test [4] deals with GAPDH mRNA. Nature of the test: Polysomal localization of cellular GAPDH mRNA in PMA-induced ACH-2 cells. It counts as cell-based, human. The settings on record: 200 μM, FIG. 6. Here is the method:
as §1

For `N[C@@H](Cn1ccc(=O)c(O)c1)C(=O)O` [L-Mimosine], in test [1], the “hypusine inhibition in cell-free system” value was “act as hypusine inhibitors in this cell-free system”. Moreover, in test [2], the “inhibition of purified and cellular deoxyhypusyl hydroxylase” value is “inhibit purified and cellular deoxyhypusyl hydroxylase”. In addition, the “polysomal localization of viral Gag mRNA” value in test [3] (FIG. 6) is reported as “redirects a significant portion of the Rev-dependent Gag mRNAs into the non-polysomal fractions”; in test [3] (FIG. 6, listed as minosine) it was “shifted away from the polysomal protein producing machinery into the pool of monosomal/free MRNA”. Also, the “polysomal localization of GAPDH mRNA” value in test [4] is recorded as “did not affect the polysomal loading of cellular MRNA; also recorded: only a marginal effect on the distribution of GAPDH mRNA”.
